This is an account of results in patent publication US10144742B2 (Millennium Pharmaceuticals, Inc., priority 2014, dated 2018).

For test [1], the target named is hNAMPT protein (Homo sapiens (Human), UniProt P43490). The test is described as follows: NAMPT enzyme assay (TR-FRET/HTRF, BodiPY ligand, anti 6His-Tb). Type of test: binding. To be noted: for IC50: NAMPT IC50 range class, read-out: IC50; for inhibition at 1 µM: read-out: Percent Inhibition. Summed up:
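Compound or DMSO was incubated for 1 h at room temperature, protected from light, with BodiPY ligand and hNAMPT labelled by terbium anti-6His antibody. The 520 nm to 486 nm emission ratio after 320 nm excitation gave inhibition versus vehicle, from which concentration-response curves yielded IC50.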

Test [2] deals with PC3 cells. The experiment in a line: PC3 growth inhibition (Cell-titer glo, 72 hours). To be noted: Homo sapiens, read-out: Percent Inhibition (PC3 growth inhibition); for inhibition at 1.852 µM: compound concentration 1.852 μM; for inhibition at 1.667 µM: compound concentration 1.667 μM. The class given is cell-based. Summed up:
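Compounds in AIM serum-free medium were applied for 72 h at 37 °C, 5% CO2 to PC3 cells plated overnight from RPMI1640 culture. Luminescence after 10 min CellTiter-Glo, normalised to DMSO, gave % viability at 1 μM or 1.667 μM, or GI50/LD50.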

Setting [3] is: PC-3, compound concentration 1 μM, PC3 cells, 72 hours, Cell-titer glo.
Setting [4] is: PC-3, PC3 cells, 72 hours, Cell-titer glo.

Like-named read-outs stand apart in the source and are kept apart here.

Chain of hNAMPT protein (P43490 whole entry): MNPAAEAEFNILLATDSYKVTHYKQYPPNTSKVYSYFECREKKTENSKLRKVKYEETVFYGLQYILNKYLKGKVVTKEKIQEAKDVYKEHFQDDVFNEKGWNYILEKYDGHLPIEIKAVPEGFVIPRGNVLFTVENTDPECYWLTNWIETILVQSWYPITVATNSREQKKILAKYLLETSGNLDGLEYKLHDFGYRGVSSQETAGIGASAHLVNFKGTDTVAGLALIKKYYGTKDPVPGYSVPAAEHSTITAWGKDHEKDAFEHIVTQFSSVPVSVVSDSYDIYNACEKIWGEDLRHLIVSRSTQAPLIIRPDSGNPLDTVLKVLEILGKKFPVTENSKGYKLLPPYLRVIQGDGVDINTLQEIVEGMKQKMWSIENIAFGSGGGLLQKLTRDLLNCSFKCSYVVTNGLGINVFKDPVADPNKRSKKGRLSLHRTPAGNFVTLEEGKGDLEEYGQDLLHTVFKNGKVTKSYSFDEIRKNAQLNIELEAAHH

Turning to `O=C(NCCCn1ccnc1)c1ccc2nc(-c3cccc(OC(F)(F)F)c3)c(-c3ccccc3)nc2c1` [Compound I-61, N-[3-(1H-imidazol-1-yl)propyl]-3-phenyl-2-[3-(trifluoromethoxy)phenyl]quinoxaline-6-carboxamide], in test [1], the IC50 fell in the range of 100 to 500 nM. Also, the values for the inhibition at 1 µM in test [1] (compound concentration 1 μM) and in test [2] (setting [3]) were 75% and -7%, respectively.

For `O=C(NCCCn1ccnc1)c1ccc2nc(NCc3ccccc3)c(-c3ccccc3)nc2c1` [Compound I-62, 2-(benzylamino)-N-[3-(1H-imidazol-1-yl)propyl]-3-phenylquinoxaline-6-carboxamide], the IC50 in test [1] was 2000 to 10000 nM. Also, the figures for the inhibition at 1 µM in test [1] (compound concentration 1 μM) and in test [2] (setting [3]) were 24% and -4%, respectively.

In the case of `CC(C)(C)OC(=O)NCc1ccc(-c2nc3cc(C(=O)NCCCn4ccnc4)ccc3nc2-c2ccccc2)cc1` [Compound I-63, tert-Butyl [4-(7-{[3-(1H-imidazol-1-yl)propyl]carbamoyl}-3-phenylquinoxalin-2-yl)benzyl]carbamate], in test [1], the half-inhibitory concentration (IC50) lay in the range of 2000 to 10000 nM and the inhibition at 1 µM amounted to 17%. Moreover, the inhibition at 1 µM in test [2] (setting [3]) came out at 25%.

`O=C(NCc1ccc2nccn2c1)c1ccc2nc(N3CCC(N4CCOCC4)CC3)c(-c3ccc(F)cc3)nc2c1` [Compound I-64, 3-(4-fluorophenyl)-N-(imidazo[1,2-a]pyridin-6-ylmethyl)-2-[4-(morpholin-4-yl)piperidin-1-yl]quinoxaline-6-carboxamide]: the IC50 in test [1] is less than 100 nM. Also, the inhibition at 1 µM in test [1] (compound concentration 1 μM) came out at 98%. Further, in test [2] (setting [4]), the inhibition at 1.852 µM was determined as 2%.

Take `O=C(NCCOc1cccnc1)c1ccc2nc(-c3ccc(F)cc3)c(-c3ccc(F)cc3)nc2c1` [Compound I-65, 2,3-bis(4-fluorophenyl)-N-[2-(pyridin-3-yloxy)ethyl]quinoxaline-6-carboxamide]: the 50% inhibitory concentration (IC50) in test [1] is less than 100 nM. In addition, the inhibition at 1 µM in test [1] (compound concentration 1 μM) stood at 95%. Moreover, in test [2] (setting [4]), the inhibition at 1.667 µM was determined as 2%.

`CC(C)(C)OC(=O)N1CCN(C2CCN(c3nc4ccc(C(=O)NCCCn5ccnc5)cc4nc3-c3ccccc3)CC2)CC1` [Compound I-66, tert-butyl 4-[1-(6-{[3-(1H-imidazol-1-yl)propyl]carbamoyl}-3-phenylquinoxalin-2-yl)piperidin-4-yl]piperazine-1-carboxylate]: in test [1], the IC50 was less than 100 nM. Moreover, the inhibition at 1 µM in test [1] (compound concentration 1 μM) was 102%; in test [2] (setting [3]), -1%.

On to `COc1cccc(-c2nc3cc(C(=O)NCCc4cccnc4)ccc3nc2N2CCC(O)CC2)c1` [Compound I-67, 2-(4-hydroxypiperidin-1-yl)-3-(3-methoxyphenyl)-N-[2-(pyridin-3-yl)ethyl]quinoxaline-6-carboxamide], for which the IC50 in test [1] was less than 100 nM. Moreover, in test [1] (compound concentration 1 μM), the inhibition at 1 µM is 96%. Besides, the inhibition at 1.667 µM in test [2] (setting [4]) came to 2%.

On to `Cn1cc2c(n1)OCCN(C(=O)c1ccc3nc(-c4ccc(F)cc4)c(-c4ccc(F)cc4)nc3c1)C2` [Compound I-68, [2,3-bis(4-fluorophenyl)quinoxalin-6-yl](2-methyl-2,4,6,7-tetrahydro-5H-pyrazolo[4,3-f][1,4]oxazepin-5-yl)methanone], for which, in test [1], the IC50 lay in the range of 2000 to 10000 nM. The inhibition at 1 µM turned out to be 16% in test [1] (compound concentration 1 μM) and 101% in test [2] (setting [3]).

Turning to `O=C(NCCCn1ccnc1)c1ccc2nc(-c3ccccc3)c(-c3ccc4nccn4c3)nc2c1` [Compound I-69, N-[3-(1H-imidazol-1-yl)propyl]-3-(imidazo[1,2-a]pyridin-6-yl)-2-phenylquinoxaline-6-carboxamide], in test [1], the half-maximal inhibitory concentration (IC50) lay within 100 to 500 nM. Also, the figures for the inhibition at 1 µM in test [1] (compound concentration 1 μM) and in test [2] (setting [3]) were 75% and 0%, respectively.

As for `COc1cccc(-c2nc3cc(C(=O)NCCCc4cccnc4)ccc3nc2N2CCC(N3CCOCC3)CC2)c1` [Compound I-70, 3-(3-methoxyphenyl)-2-[4-(morpholin-4-yl)piperidin-1-yl]-N-[3-(pyridin-3-yl)propyl]quinoxaline-6-carboxamide], in test [1], the half-inhibitory concentration (IC50) is less than 100 nM. The inhibition at 1 µM in test [1] (compound concentration 1 μM) is greater than 99%. Further, in test [2] (setting [4]), the inhibition at 1.667 µM was found to be 2%.

For the molecule `O=C(CCCn1ccnc1)Nc1ccc2nc(-c3ccc(F)cc3)c(-c3ccc(F)cc3)nc2c1` [Compound I-72, N-[2,3-Bis(4-fluorophenyl)quinoxalin-6-yl]-4-(1H-imidazol-1-yl)butanamide], in test [1], the half-maximal inhibitory concentration (IC50) lay in the range of 1000 to 2000 nM. Moreover, the inhibition at 1 µM is 46% in test [1] (compound concentration 1 μM) and 2% in test [2] (setting [3]).

For the molecule `COc1cccc(-c2nc3cc(C(=O)NCCc4cccnc4)ccc3nc2Cl)c1` [Compound I-73, 2-Chloro-3-(3-methoxyphenyl)-N-[2-(pyridin-3-yl)ethyl]quinoxaline-6-carboxamide], the IC50 in test [1] lay within 1000 to 2000 nM. The inhibition at 1 µM in test [1] (compound concentration 1 μM) turned out to be 13%. In test [2] (setting [4]), the inhibition at 1.852 µM was greater than 99%.

In the case of `CC(C)(C)OC(=O)NC1CCN(C2CCN(c3nc4ccc(C(=O)NCCCn5ccnc5)cc4nc3-c3ccccc3)CC2)CC1` [Compound I-74, tert-Butyl [1′-(6-{[3-(1H-imidazol-1-yl)propyl]carbamoyl}-3-phenylquinoxalin-2-yl)-1,4′-bipiperidin-4-yl]carbamate], the IC50 in test [1] was less than 100 nM. Besides, the inhibition at 1 µM in test [1] (compound concentration 1 μM) is 100%; in test [2] (setting [3]) it was -2%.

On to `O=C(c1ccc2nc(-c3ccc(F)cc3)c(-c3ccc(F)cc3)nc2c1)N1CCc2[nH]ccc2C1` [Compound I-75, [2,3-bis(4-fluorophenyl)quinoxalin-6-yl](1,4,6,7-tetrahydro-5H-pyrrolo[3,2-c]pyridin-5-yl)methanone], for which, in test [1], the half-inhibitory concentration (IC50) was in the range of 2000 to 10000 nM. Moreover, the results for the inhibition at 1 µM in test [1] (compound concentration 1 μM) and in test [2] (setting [3]) were 16% and 96%, respectively.

In the case of `O=C(NCc1ccccn1)c1ccc2nc(-c3ccccc3)c(-c3ccccc3)nc2c1` [Compound I-76, 2,3-diphenyl-N-(pyridin-2-ylmethyl)quinoxaline-6-carboxamide], in test [1], the IC50 lay in the range of 2000 to 10000 nM. In addition, the inhibition at 1 µM in test [1] (compound concentration 1 μM) was determined as 29%; in test [2] (setting [3]) it was 92%.

Turning to `O=C(NCCCc1nccs1)c1ccc2nc(N3CCC(O)CC3)c(-c3ccc(F)cc3)nc2c1` [Compound I-77, 3-(4-Fluorophenyl)-2-(4-hydroxypiperidin-1-yl)-N-[3-(1,3-thiazol-2-yl)propyl]quinoxaline-6-carboxamide], the IC50 in test [1] was in the range of 100 to 500 nM. Further, in test [1] (compound concentration 1 μM), the inhibition at 1 µM amounted to 86%. Also, in test [2] (setting [4]), the inhibition at 1.667 µM was greater than 99%.

With `COC1CCN(c2nc3ccc(C(=O)NCCCc4ncc[nH]4)cc3nc2-c2ccc(F)cc2)CC1` [Compound I-78, 3-(4-fluorophenyl)-N-[3-(1H-imidazol-2-yl)propyl]-2-(4-methoxypiperidin-1-yl)quinoxaline-6-carboxamide], the half-maximal inhibitory concentration (IC50) in test [1] is less than 100 nM. In addition, the inhibition at 1 µM in test [1] (compound concentration 1 μM) is greater than 99%. For the same molecule, in test [2] (setting [4]), the inhibition at 1.667 µM is 2%.

In the case of `O=C(NCCCn1ccnc1)c1ccc2nc(-c3ccccc3)c(-c3ccc(Cl)cc3)nc2c1` [Compound I-79, 3-(4-chlorophenyl)-N-[3-(1H-imidazol-1-yl)propyl]-2-phenylquinoxaline-6-carboxamide], the half-maximal inhibitory concentration (IC50) in test [1] is less than 100 nM. For the same molecule, the figures for the inhibition at 1 µM in test [1] (compound concentration 1 μM) and in test [2] (setting [3]) were 93% and -8%, respectively.

On to `O=C(NCCCn1ccnc1)c1ccc2nc(Oc3ccccc3)c(-c3ccccc3)nc2c1` [Compound I-80, N-[3-(1H-Imidazol-1-yl)propyl]-2-phenoxy-3-phenylquinoxaline-6-carboxamide], for which, in test [1], the IC50 is 500 to 1000 nM and the inhibition at 1 µM is 65%. In test [2] (setting [3]), the inhibition at 1 µM came to 1%.

`CN1CCN(c2nc3ccc(C(=O)NCCCn4ccnc4)cc3nc2-c2ccccc2)CC1=O` [Compound I-81, N-[3-(1H-imidazol-1-yl)propyl]-2-(4-methyl-3-oxopiperazin-1-yl)-3-phenylquinoxaline-6-carboxamide]: the IC50 in test [1] was in the range of 500 to 1000 nM. For the same molecule, the results for the inhibition at 1 µM in test [1] (compound concentration 1 μM) and in test [2] (setting [3]) were 63% and -7%, respectively.

Consider `Cn1cncc1CCNC(=O)c1ccc2nc(N3CCC(N4CCOCC4)CC3)c(-c3ccc(F)cc3)nc2c1` [Compound I-82, 3-(4-Fluorophenyl)-N-[2-(1-methyl-1H-imidazol-5-yl)ethyl]-2-[4-(morpholin-4-yl)piperidin-1-yl]quinoxaline-6-carboxamide], for which the IC50 in test [1] is less than 100 nM. Besides, the inhibition at 1 µM in test [1] (compound concentration 1 μM) amounted to 98%. Also, the inhibition at 1.667 µM in test [2] (setting [4]) was 2%.

For `O=C(NCCn1cccn1)c1ccc2nc(-c3ccc(F)cc3)c(-c3ccc(F)cc3)nc2c1` [Compound I-83, 2,3-bis(4-fluorophenyl)-N-[2-(1H-pyrazol-1-yl)ethyl]quinoxaline-6-carboxamide], the 50% inhibitory concentration (IC50) in test [1] lay within 2000 to 10000 nM. Moreover, the inhibition at 1 µM is 33% in test [1] (compound concentration 1 μM) and 96% in test [2] (setting [3]).

Take `CN(CCc1cccnc1)C(=O)c1ccc2nc(-c3ccc(F)cc3)c(-c3ccc(F)cc3)nc2c1` [Compound I-84, 2,3-bis(4-fluorophenyl)-N-methyl-N-[2-(pyridin-3-yl)ethyl]quinoxaline-6-carboxamide]: the IC50 in test [1] fell in the range of 2000 to 10000 nM. In addition, the inhibition at 1 µM was 17% in test [1] (compound concentration 1 μM) and 85% in test [2] (setting [3]).

Take `CC(C)(C)OC(=O)NCc1cccc(-c2nc3cc(C(=O)NCCCn4ccnc4)ccc3nc2-c2ccccc2)c1` [Compound I-85, tert-Butyl [3-(7-{[3-(1H-imidazol-1-yl)propyl]carbamoyl}-3-phenylquinoxalin-2-yl)benzyl]carbamate]: in test [1], the IC50 fell in the range of 2000 to 10000 nM. Moreover, the inhibition at 1 µM was 25% in test [1] and 8% in test [2] (PC-3, 72 h).
